Legend:
[1] = tested on: myelin surrounding axons of the posterior lateral line nerves (PLLs); test: Remyelination of peripheral nervous system (PLL myelin) in MTZ-demyelinated transformed zebrafish, GFP-fluorescence confocal microscopy; type: in vivo, Zebrafish (Danio rerio)
Description: Transformed Zebrafish (Danio rerio) in which genes respectively encoding an Mbp:EGFP fusion protein and a Claudink:EGFP fusion protein that are specifically expressed in myelin and emit fluorescence by using promoters of a myelin basic protein (MBP) gene and a Claudink gene were prepared, by transforming Zebrafish cells with genes respectively encoding an Mbp:EGFP fusion protein and a Claudink:EGFP fusion protein. Specifically, the NfsB virulence gene encodes a nitroreductase (NTR) enzyme. […] However, when metronidazole (MTZ) is added to cells, the cells convert MTZ into a cytotoxic material by using NTR, which induces apoptosis. Genetically engineered zebrafish, i.e., transformed zebrafish that express the NfsB virulence gene specifically in differentiated oligodendrocytes and Schwann cells were prepared by using promoters of mbp and claudink genes that specifically operate in differentiated myelin to express myelin-specific genes bound to myelin, and using the Gal4-UAS transactivator system. Next, it was confirmed that the NfsB virulence gene was myelin-specifically expressed in the transformed zebrafish.
As a result, an animal model of demyelination that is induced in the presence of MTZ was established. Hereinafter, this animal model is also referred to as zebrafish (Mbp (or claudink):gal4::UAS:nfsB (NTR, toxin)::UAS:gfp). After removing the added MTZ substrate from the culture medium, the transformed zebrafish were then cultured in a culture medium free of MTZ for 1 day, followed by a recovery period. This study, described in greater detail below, confirmed that natural remyelination occurred in the demyelinated central nervous system and peripheral nervous system and that ES drug has an effect of promoting remyelination. […]

PMP22 = PMP22 protein expression by Western blotting in rat Schwann cells overexpressing human PMP22; type: cell-based
Description: Rat Schwann cells were inoculated at a concentration of about 10^5 cells/mL into each well of a 12-well plate including 2 mL of a Dulbecco's Modified Eagle's Medium (DMEM) containing 10% fetal bovine serum (FBS), 100 units/mL of penicillin, and 100 units/mL of streptomycin, and incubated in a 5%-CO2 incubator at about 37° C. to a cell density of about 60% to about 65%. […] Rat Schwann cells are often used in in vitro models for neuronal function and differentiation. The rat Schwann cells used herein were modified to consistently overexpress the human PMP22 gene by lentivital mediated integration of PMP22 into a chromosome and selective use of puromycin-resistant markers, thereby constructing a new rat Schwann PMP22 cell model. The rat Schwann cells (ATCC number; CRL-2768) were purchased from the American Type Culture Collection (ATCC).
After 2 mL of the culture medium was removed, the resulting rat Schwann cells were washed with phosphate buffered saline (PBS), followed by adding a lysis solution containing a 0.5% triton X-100 in PBS thereto, collecting the cells using a scraper, leaving the cells on ice for about 30 minutes, and then disrupting the cells. […]

[2] = tested on: Mauthner axons and myelin in the central nervous system; test: Remyelination of central nervous system (Mauthner axons) in MTZ-demyelinated transformed zebrafish, g-ratio; type: in vivo, Zebrafish (Danio rerio); conditions: zebrafish ClaudinK line
Description: Transformed Zebrafish (Danio rerio) in which genes respectively encoding an Mbp:EGFP fusion protein and a Claudink:EGFP fusion protein that are specifically expressed in myelin and emit fluorescence by using promoters of a myelin basic protein (MBP) gene and a Claudink gene were prepared, by transforming Zebrafish cells with genes respectively encoding an Mbp:EGFP fusion protein and a Claudink:EGFP fusion protein. Specifically, the NfsB virulence gene encodes a nitroreductase (NTR) enzyme. […] However, when metronidazole (MTZ) is added to cells, the cells convert MTZ into a cytotoxic material by using NTR, which induces apoptosis. […]
FIG. 6 illustrates the results of GFP-originated fluorescence microscopy and red fluorescence microscopy with immunostaining by acetylated-tubulin that is expressed specific to axons, by using a confocal laser microscope on sections of Mauthner axons and myelin in the central nervous system of the zebrafish (ClaudinK:gal4::UAS:nfsB (NTR, toxin)::UAS:gfp) incubated under various conditions. […] The axon and fiber diameters were obtained by calculating the diameters from the intensities of GFP-originated fluorescence and red axonal fluorescence with the Image J program. […]

## CCNCC.O=S(=O)(O)c1cc(O)ccc1O [ethamsylate, diethyl ammonium 2,5-dihydroxybenzene sulfonic acid]
[1]; zebrafish Claudink line, 10 μM ES vs MTZ treated sample, FIGS. 4 and 5
  ratio of myelinated axons to total axons: significantly higher
[1]; zebrafish Claudink:gal4::UAS:nfsB::UAS:gfp, 10 μM ES after MTZ, FIG. 4
  remyelination of PLL myelin (GFP and acetylated-tubulin fluorescence): promote remyelination
[1]; zebrafish Mbp:gal4::UAS:nfsB::UAS:gfp, MTZ 4.5-6 dpf, washed, 10 μM ES 6-7 dpf (about 1 day), FIG. 3 panel D
  myelin in the peripheral nervous system (GFP-originated green fluorescence): completely remyelinated
PMP22; 10 μM ethamsylate, incubation for 0.5, 1, 12, 24 and 48 hours, vs 0 hour control, FIG. 1 panel B
  expression level of PMP22 protein: decreased compared to the control group
PMP22; 0.1, 1, 10, 100 μM ethamsylate in DMSO, about 24 hours, vs DMSO control, FIG. 1 panel A, n=4
  amount of PMP22 protein expressed: decrease in the amount of PMP22 protein expressed
[2]; Mauthner axons, 10 μM ethamsylate vs MTZ treatment group, FIG. 8
  g-ratio (diameter ratio of axon to nerve fiber): remarkably reduced g-ratio
[2]; incubated in presence of ethamsylate after MTZ, FIGS. 6 and 8
  regeneration or remyelination of demyelinated nerve cells in the central nervous system: remyelinated with a significantly higher efficiency

Reference: US9782371B2, “Composition for promoting remyelination in nerve cells comprising 2,5-dihydroxybenzenesulfonic acid and use thereof” (Samsung Electronics Co., Ltd., priority 2015, dated 2017)
